# In patent US12435059B2, “AMP-activated protein kinase inhibitors and methods of making and using the same” (The Regents of the University of Colorado, priority 2019, dated 2025):
# Assays:
# Test in all cases: biochemical
# Format in all cases: binding
# 468 kinases [1] = molecular target: 468 kinases (Homo sapiens, UniProt Q9BXA7); settings: TSSK1B; read-out: % Inhibition @ 100 nM
# 468 kinases [2] = molecular target: 468 kinases (Homo sapiens, UniProt Q8TD19); settings: NEK9; read-out: % Inhibition @ 100 nM
# 468 kinases [3] = molecular target: 468 kinases (Homo sapiens, UniProt Q05397); settings: FAK; read-out: % Inhibition @ 100 nM
# 468 kinases [4] = molecular target: 468 kinases (Homo sapiens, UniProt P07949); settings: RET; read-out: % Inhibition @ 100 nM
# 468 kinases [5] = molecular target: 468 kinases (Homo sapiens, UniProt P19525); settings: PRKR; read-out: % Inhibition @ 100 nM
# 468 kinases [6] = molecular target: 468 kinases (Homo sapiens, UniProt P41240); settings: CSK; read-out: % Inhibition @ 100 nM
# 468 kinases [7] = molecular target: 468 kinases (Homo sapiens, UniProt P36888, D835Y); settings: FLT3(D835Y); read-out: % Inhibition @ 100 nM
# 468 kinases [8] = molecular target: 468 kinases (Homo sapiens, UniProt P45985); settings: MEK4; read-out: % Inhibition @ 100 nM
# 468 kinases [9] = molecular target: 468 kinases (Homo sapiens, UniProt Q02156); settings: PRKCE; read-out: % Inhibition @ 100 nM
# 468 kinases [10] = molecular target: 468 kinases (Homo sapiens, UniProt P28482); settings: ERK2; read-out: % Inhibition @ 100 nM
# 468 kinases [11] = molecular target: 468 kinases (Homo sapiens, UniProt O75460); settings: ERN1; read-out: % Inhibition @ 100 nM
# 468 kinases [12] = molecular target: 468 kinases (Homo sapiens, UniProt P51956); settings: NEK3; read-out: % Inhibition @ 100 nM
# 468 kinases [13] = molecular target: 468 kinases (Homo sapiens, UniProt P42345); settings: MTOR; read-out: % Inhibition @ 100 nM
# 468 kinases [14] = molecular target: 468 kinases (Homo sapiens, UniProt P57078); settings: RIPK4; read-out: % Inhibition @ 100 nM
# 468 kinases [15] = molecular target: 468 kinases (Homo sapiens, UniProt Q8IW41); settings: MAPKAPK5; read-out: % Inhibition @ 100 nM
# 468 kinases [16] = molecular target: 468 kinases (Homo sapiens, UniProt Q86Y07); settings: VRK2; read-out: % Inhibition @ 100 nM
# 468 kinases [17] = molecular target: 468 kinases (Homo sapiens, UniProt Q9HAZ1); settings: CLK4; read-out: % Inhibition @ 100 nM
# 468 kinases [18] = molecular target: 468 kinases (Homo sapiens, UniProt Q06418); settings: TYRO3; read-out: % Inhibition @ 100 nM
# 468 kinases [19] = molecular target: 468 kinases (Homo sapiens, UniProt Q9Y2U5); settings: MAP3K2; read-out: % Inhibition @ 100 nM
# 468 kinases [20] = molecular target: 468 kinases (Homo sapiens, UniProt P00533, DEL752-759); settings: EGFR(S752-1759del); read-out: % Inhibition @ 100 nM
# 468 kinases [21] = molecular target: 468 kinases (Homo sapiens, UniProt P78368); settings: CSNK1G2; read-out: % Inhibition @ 100 nM
# 468 kinases [22] = molecular target: 468 kinases (Homo sapiens, UniProt Q16513); settings: PKN2; read-out: % Inhibition @ 100 nM
# 468 kinases [23] = molecular target: 468 kinases (Homo sapiens, UniProt Q8NE63); settings: HIPK4; read-out: % Inhibition @ 100 nM
# 468 kinases [24] = molecular target: 468 kinases (Homo sapiens, UniProt O60331); settings: PIPSK1C; read-out: % Inhibition @ 100 nM
# 468 kinases [25] = molecular target: 468 kinases (Homo sapiens, UniProt P00519, M351T); settings: ABL1 (M351T)-phosphorylated; read-out: % Inhibition @ 100 nM
# 468 kinases [26] = molecular target: 468 kinases (Homo sapiens, UniProt P35626); settings: GRK3; read-out: % Inhibition @ 100 nM
# 468 kinases [27] = molecular target: 468 kinases (Homo sapiens, UniProt O00238); settings: BMPR1B; read-out: % Inhibition @ 100 nM
# 468 kinases [28] = molecular target: 468 kinases (Homo sapiens, UniProt P51955); settings: NEK2; read-out: % Inhibition @ 100 nM
# 468 kinases [29] = molecular target: 468 kinases (Homo sapiens, UniProt Q13464); settings: ROCK1; read-out: % Inhibition @ 100 nM
# 468 kinases [30] = molecular target: 468 kinases (Homo sapiens, UniProt Q9P286); settings: PAK7; read-out: % Inhibition @ 100 nM
# 468 kinases [31] = molecular target: 468 kinases (Homo sapiens, UniProt P07947); settings: YES; read-out: % Inhibition @ 100 nM
# 468 kinases [32] = molecular target: 468 kinases (Homo sapiens, UniProt P07949, V804M); settings: RET(V804M); read-out: % Inhibition @ 100 nM
# 468 kinases [33] = molecular target: 468 kinases (Homo sapiens, UniProt Q9Y6E0); settings: MST3; read-out: % Inhibition @ 100 nM
SMILES,inhibition at 0.1 µM (468 kinases [1]),inhibition at 0.1 µM (468 kinases [2]),inhibition at 0.1 µM (468 kinases [3]),inhibition at 0.1 µM (468 kinases [4]),inhibition at 0.1 µM (468 kinases [5]),inhibition at 0.1 µM (468 kinases [6]),inhibition at 0.1 µM (468 kinases [7]),inhibition at 0.1 µM (468 kinases [8]),inhibition at 0.1 µM (468 kinases [9]),inhibition at 0.1 µM (468 kinases [10]),inhibition at 0.1 µM (468 kinases [11]),inhibition at 0.1 µM (468 kinases [12]),inhibition at 0.1 µM (468 kinases [13]),inhibition at 0.1 µM (468 kinases [14]),inhibition at 0.1 µM (468 kinases [15]),inhibition at 0.1 µM (468 kinases [16]),inhibition at 0.1 µM (468 kinases [17]),inhibition at 0.1 µM (468 kinases [18]),inhibition at 0.1 µM (468 kinases [19]),inhibition at 0.1 µM (468 kinases [20]),other results
"CCN(CC)CCNC(=O)c1c(C)[nH]c(/C=C2\C(=O)Nc3ccc(CCO)cc32)c1C [Compound No. 10, (Z)—N-(2-(Diethylamino)ethyl)-5-((5-(2-hydroxyethyl)-2-oxoindolin-3-ylidene)methyl)-2,4-dimethyl-1H-pyrrole-3-carboxamide]",0%,0%,8%,55%,2%,0%,100%,0%,0%,8%,0%,50%,0%,12%,0%,0%,95.5%,0%,77%,14%,inhibition at 0.1 µM (468 kinases [21]): 0%; inhibition at 0.1 µM (468 kinases [22]): 24%; inhibition at 0.1 µM (468 kinases [23]): 28%; inhibition at 0.1 µM (468 kinases [24]): 32%; inhibition at 0.1 µM (468 kinases [25]): 24%; inhibition at 0.1 µM (468 kinases [26]): 0%; inhibition at 0.1 µM (468 kinases [27]): 0%; inhibition at 0.1 µM (468 kinases [28]): 0%; inhibition at 0.1 µM (468 kinases [29]): 4%; inhibition at 0.1 µM (468 kinases [30]): 0%; inhibition at 0.1 µM (468 kinases [31]): 13%; inhibition at 0.1 µM (468 kinases [32]): 86%; inhibition at 0.1 µM (468 kinases [33]): 20%
"CCN(CC)CCNC(=O)c1c(C)[nH]c(/C=C2\C(=O)Nc3ccc(CCC(N)=O)cc32)c1C [Compound No. 16, (Z)-5-((5-(3-Amino-3-oxopropyl)-2-oxoindolin-3-ylidene)methyl)-N-(2-(diethylamino)ethyl)-2,4-dimethyl-1H-pyrrole-3-carboxamide]",4%,0%,100%,60%,29%,1%,100%,97.7%,5%,6%,10%,45%,6%,14%,28%,39%,96.2%,2.1%,29%,19%,inhibition at 0.1 µM (468 kinases [21]): 3%; inhibition at 0.1 µM (468 kinases [22]): 18%; inhibition at 0.1 µM (468 kinases [23]): 57%; inhibition at 0.1 µM (468 kinases [24]): 15%; inhibition at 0.1 µM (468 kinases [25]): 22%; inhibition at 0.1 µM (468 kinases [26]): 61%; inhibition at 0.1 µM (468 kinases [27]): 28%; inhibition at 0.1 µM (468 kinases [28]): 5%; inhibition at 0.1 µM (468 kinases [29]): 53%; inhibition at 0.1 µM (468 kinases [30]): 11%; inhibition at 0.1 µM (468 kinases [31]): 24%; inhibition at 0.1 µM (468 kinases [32]): 99.3%; inhibition at 0.1 µM (468 kinases [33]): 19%
